Like-named read-outs stand apart in the source and are kept apart here. Values belong to the compound of their own block, whether it stands above or below them.
Molecular target: T1, HDAC6 (Homo sapiens, UniProt Q9UBN7)
T1 sequence (Q9UBN7 1-1215): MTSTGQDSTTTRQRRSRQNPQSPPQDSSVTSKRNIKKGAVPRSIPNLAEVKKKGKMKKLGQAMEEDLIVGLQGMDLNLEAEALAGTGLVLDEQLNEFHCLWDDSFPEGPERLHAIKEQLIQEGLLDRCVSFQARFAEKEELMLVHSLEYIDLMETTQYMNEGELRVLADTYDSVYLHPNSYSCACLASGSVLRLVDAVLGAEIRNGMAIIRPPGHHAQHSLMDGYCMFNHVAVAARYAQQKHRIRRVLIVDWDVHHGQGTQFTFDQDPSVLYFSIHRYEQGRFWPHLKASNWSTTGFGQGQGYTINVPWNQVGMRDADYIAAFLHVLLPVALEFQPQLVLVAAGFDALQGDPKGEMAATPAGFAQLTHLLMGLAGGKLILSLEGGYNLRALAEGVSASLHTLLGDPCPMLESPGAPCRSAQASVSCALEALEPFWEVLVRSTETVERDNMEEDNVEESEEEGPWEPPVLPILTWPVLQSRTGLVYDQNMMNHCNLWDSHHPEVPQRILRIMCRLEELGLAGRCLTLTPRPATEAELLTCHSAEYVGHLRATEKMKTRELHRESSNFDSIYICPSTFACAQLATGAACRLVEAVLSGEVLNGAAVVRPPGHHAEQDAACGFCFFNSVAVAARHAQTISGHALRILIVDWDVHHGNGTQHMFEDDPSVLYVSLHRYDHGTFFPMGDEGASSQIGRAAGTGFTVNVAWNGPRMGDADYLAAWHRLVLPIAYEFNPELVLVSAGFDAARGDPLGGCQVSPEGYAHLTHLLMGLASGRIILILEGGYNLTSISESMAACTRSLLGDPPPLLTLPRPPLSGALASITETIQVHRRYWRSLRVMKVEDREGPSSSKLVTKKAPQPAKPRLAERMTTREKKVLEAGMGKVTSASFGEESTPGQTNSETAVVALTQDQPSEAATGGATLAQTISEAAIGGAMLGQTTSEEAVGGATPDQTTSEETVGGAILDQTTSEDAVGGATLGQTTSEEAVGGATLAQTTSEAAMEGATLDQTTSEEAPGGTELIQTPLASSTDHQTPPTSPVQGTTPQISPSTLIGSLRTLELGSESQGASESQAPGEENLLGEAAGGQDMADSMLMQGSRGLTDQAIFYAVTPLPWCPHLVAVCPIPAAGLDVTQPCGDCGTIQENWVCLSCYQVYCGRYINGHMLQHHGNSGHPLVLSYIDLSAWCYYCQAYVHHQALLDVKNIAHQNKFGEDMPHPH
Assay: Chemoproteomic competition pulldown assay
Type: binding
Parameters: endogenous in cells; host or cells: SW620, MV4-11, A549 lysates
Description: To identify proteins directly bound by lipoic acid, we employed a chemoproteomic competition assay. Briefly, (R/S)-LA was immobilized on sepharose beads via an amidation reaction to form an affinity matrix (abbreviated as iL; Fig. 1a). This affinity matrix can be incubated with cell lysate to pull down potential LA or LM target proteins and identify these targets via bottom-up proteomics. In a competition assay, free LA or LM were incubated with lysate at different concentrations before pulling down and quantifying target proteins. […] (Fig. 1b, see “Methods” for details). […] The lysate buffer used in this assay contains 1 mM DTT to mimic the intracellular reductive milieu and to reduce lipoic acid and LM. […] Additional competition assays performed in lung adenocarcinoma cell A549 lysate also identified HDAC1, HDAC2, and HDAC6 as targets (Supplementary Fig. 1b). Amongst the three cell lines tested, HDACs were the only confidently identified targets across the 1500–3000 proteins quantified in these assays. […] We validated the results by analogous pulldown competition assays using two other affinity matrices prepared via the immobilization of either the HDAC inhibitor Quisinostat (iQ) and an analog of the class IIa HDAC inhibitor Bürli’s 31[14] (iC)[12]. We have previously shown that these affinity matrices specifically bind to the active sites of HDACs and have used them for HDACi selectivity profiling. Indeed, binding of (R/S)-LA and (R/S)-LM to HDAC1, HDAC2, HDAC3, HDAC6, and, to a lesser extent, HDAC8 was confirmed in these assays (Supplementary Fig. 1c, d). No binding to class IIa HDACs or the recently discovered common HDAC inhibitor off-target MBLAC2 was observed (Supplementary Fig. 1e)[12]. […] This observation might reflect electrostatic repulsion between the HDAC10 active site gate-keeper glutamic acid residues[15],[16] and the terminal carboxylic acid of LA.
To assess the degree of protein depletion from lysates by the affinity matrix, a second pulldown (PDPD) with fresh beads was performed using the unbound protein fraction from the vehicle control flow through. The beads were washed (1 × 1 mL of lysis buffer without inhibitors and only 0.4% Igepal, 2 × 2 mL of lysis buffer without inhibitors and only 0.2% Igepal), and captured proteins were denatured with 8 M urea buffer, alkylated with 55 mM chloroacetamide and digested with Trypsin according to standard procedures. The resulting peptides were desalted on a C18 filter plate (Sep-Pak® tC18 µElution Plate, Waters), vacuum dried, and stored at −20 °C until LC–MSMS measurement.
For the competition assays, relative binding was calculated based on the protein intensity ratio to the DMSO control for every single inhibitor concentration. EC50 values were derived from a four-parameter log-logistic regression with variable slope (constrain: bottom > 0). The obtained EC50 values were multiplied with a protein-dependent correction factor (cf), resulting in the apparent Kd value (Kd^app). The correction factor is determined by calculating the ratio of the protein intensity of two consecutive pulldowns of the vehicle control sample[13]. Targets of the inhibitors were annotated manually according to published procedures[12],[46],[47]. […] Additionally, the number of unique peptides and MSMS counts per condition were taken into account. Positive target binding across several independent experiments performed with different cell lysates further substantiated our confidence for a true positive drug-target binding event.

[1] = iL, SW620, read-out: pKdapp (converted)
[2] = iQ, SW620, read-out: pKdapp (converted)
[3] = iQ, SW620 lysate, log10 M -3.52288
[4] = iQ, SW620 lysate, log10 M -4.52288
[5] = iQ, SW620 lysate, log10 M -5.52288
[6] = iQ, SW620 lysate, log10 M -6.52288

Compound: O=C(O)CCCCC1CCSS1 (racemic) [(R/S)-LA, (R/S)-lipoic acid]
Kd (iL, A549, read-out: pKdapp (converted)): 5.01 µM
relative binding vs DMSO (iL, A549 lysate, log10 M -4): 0.05504
relative binding vs DMSO (iL, A549 lysate, log10 M -4.52288): 0.1518
relative binding vs DMSO (iL, A549 lysate, log10 M -5): 0.3845
relative binding vs DMSO (iL, A549 lysate, log10 M -5.52288): 0.7285
relative binding vs DMSO (iL, A549 lysate, log10 M -6): 0.9189
relative binding vs DMSO (iL, A549 lysate, log10 M -6.52288): 1.088
relative binding vs DMSO (iL, A549 lysate, log10 M -7.52288): 1.108
relative binding vs DMSO (iL, A549 lysate, log10 M -8): 1.195
relative binding vs DMSO (iL, A549 lysate, log10 M -8.52288): 0.9886
Kd [1]: 10 µM
relative binding vs DMSO (iL, SW620 lysate, log10 M -3.52288): 0.1052
relative binding vs DMSO (iL, SW620 lysate, log10 M -4): 0.1618
relative binding vs DMSO (iL, SW620 lysate, log10 M -4.52288): 0.8697
relative binding vs DMSO (iL, SW620 lysate, log10 M -5): 1.623
relative binding vs DMSO (iL, SW620 lysate, log10 M -5.52288): 0.9452
relative binding vs DMSO (iL, SW620 lysate, log10 M -6): 1.514
relative binding vs DMSO (iL, SW620 lysate, log10 M -6.52288): 0.6952
relative binding vs DMSO (iL, SW620 lysate, log10 M -7): 1.008
Kd [2]: 10 µM
relative binding vs DMSO [3]: 0.2137
relative binding vs DMSO (iQ, SW620 lysate, log10 M -4): 0.2383
relative binding vs DMSO [4]: 0.4233
relative binding vs DMSO (iQ, SW620 lysate, log10 M -5): 0.664
relative binding vs DMSO [5]: 0.8619
relative binding vs DMSO (iQ, SW620 lysate, log10 M -6): 0.8804
relative binding vs DMSO [6]: 1.0379
relative binding vs DMSO (iQ, SW620 lysate, log10 M -7): 0.9144

relative binding vs DMSO (iL, MV4-11 lysate, log10 M -3.52288): 0.06003
relative binding vs DMSO (iL, MV4-11 lysate, log10 M -4): 0.1375
relative binding vs DMSO (iL, MV4-11 lysate, log10 M -4.52288): 0.3195
relative binding vs DMSO (iL, MV4-11 lysate, log10 M -5): 0.763
relative binding vs DMSO (iL, MV4-11 lysate, log10 M -5.52288): 0.7012
relative binding vs DMSO (iL, MV4-11 lysate, log10 M -6): 0.776
relative binding vs DMSO (iL, MV4-11 lysate, log10 M -6.52288): 0.9127
relative binding vs DMSO (iL, MV4-11 lysate, log10 M -7): 0.9147
Kd (iL, MV4-11 lysate, read-out: Kd app): 21 µM
Kd (iL, MV411, read-out: pKdapp (converted)): 10 µM
Kd [1]: 15.8 µM
Kd [2]: 10 µM
relative binding vs DMSO [3]: 0.1855
relative binding vs DMSO (iQ, SW620 lysate, log10 M -4): 0.2172
relative binding vs DMSO [4]: 0.4129
relative binding vs DMSO (iQ, SW620 lysate, log10 M -5): 0.6644
relative binding vs DMSO [5]: 0.9409
relative binding vs DMSO (iQ, SW620 lysate, log10 M -6): 1.062
relative binding vs DMSO [6]: 0.8866
relative binding vs DMSO (iQ, SW620 lysate, log10 M -7): 0.9139
Compound: NC(=O)CCCCC1CCSS1 (racemic) [(R/S)-LM, (R/S)-lipoamide]

— paper PMC10272112 (Nature Communications, 2023)
